Assay results: ChEMBL document CHEMBL3588849, “New indole-isoxazolone derivatives: Synthesis, characterisation and in vitro SIRT1 inhibition studies” (Bioorg Med Chem Lett, 2015)

What was measured:
HEK293 = test: (§1) Cytotoxicity against HEK293 cells after 72 hrs by MTT assay; type: cell-based; conditions: human, hek293, 72 h
MCF7 = test: Cytotoxicity against human MCF7 cells after 72 hrs by MTT assay; type: functional, cell-based; conditions: MCF7, 72 h
[1] = biological target: T1, NAD-dependent protein deacetylase sirtuin-1 (Homo sapiens, UniProt Q96EB6); test: Inhibition of SIRT1 (unknown origin) using AMC-Arg-His-Lys-Lys(Ac) substrate assessed as deacetylation of substrate by fluorimetric enzyme assay
T1 sequence (Q96EB6 whole entry): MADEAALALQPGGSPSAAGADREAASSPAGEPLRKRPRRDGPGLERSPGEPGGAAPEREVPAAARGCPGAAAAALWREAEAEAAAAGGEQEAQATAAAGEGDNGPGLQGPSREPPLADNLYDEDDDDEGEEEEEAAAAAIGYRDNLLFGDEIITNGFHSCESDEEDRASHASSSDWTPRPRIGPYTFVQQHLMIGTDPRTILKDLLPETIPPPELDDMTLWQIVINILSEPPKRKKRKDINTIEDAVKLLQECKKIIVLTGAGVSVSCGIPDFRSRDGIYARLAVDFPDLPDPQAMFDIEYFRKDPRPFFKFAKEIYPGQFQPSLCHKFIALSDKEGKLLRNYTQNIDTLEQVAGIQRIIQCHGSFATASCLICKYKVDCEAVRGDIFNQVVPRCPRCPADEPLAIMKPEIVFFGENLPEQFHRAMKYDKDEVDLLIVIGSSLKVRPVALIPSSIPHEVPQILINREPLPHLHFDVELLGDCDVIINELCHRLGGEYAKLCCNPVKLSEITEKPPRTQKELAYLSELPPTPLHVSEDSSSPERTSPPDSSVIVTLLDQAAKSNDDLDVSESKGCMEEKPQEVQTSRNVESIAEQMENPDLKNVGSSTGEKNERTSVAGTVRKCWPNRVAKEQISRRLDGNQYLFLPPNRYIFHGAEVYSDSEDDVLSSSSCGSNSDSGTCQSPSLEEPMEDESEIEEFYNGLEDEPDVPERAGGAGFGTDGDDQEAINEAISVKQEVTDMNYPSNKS

MDA-MB-231 = test: Cytotoxicity against human MDA-MB-231 cells after 72 hrs by MTT assay; type: functional, cell-based; conditions: MDA-MB-231, 72 h
HT-29 = test: Cytotoxicity against human HT-29 cells after 72 hrs by MTT assay; type: functional, cell-based; conditions: HT-29, 72 h
[2] = as §1; type: cell-based; conditions: human, HEK293 cells; read-out: GI

Row | SMILES | Activity (HEK293) | other results
1 | CC1=NOC(=O)/C1=C/c1c(COCc2ccc(C(F)(F)F)cc2)n(C)c2ccc(F)cc12 | Non-toxic | IC50 (MCF7): 7.72 µM; IC50 [1]: 35.2 µM; IC50 (MDA-MB-231): 8.23 µM; IC50 (HT-29): 4.82 µM
2 | Cn1c(COCc2ccc(C(F)(F)F)cc2)c(/C=C2/C(=O)ON=C2C(F)(F)F)c2cc(F)ccc21 | Non-toxic | IC50 (MCF7): 5.51 µM; IC50 [1]: 37.4 µM; IC50 (MDA-MB-231): 5.03 µM; IC50 (HT-29): 2.59 µM
3 | CC1=NOC(=O)/C1=C/c1c(C(=O)NCc2ccc(C)cc2)n(C)c2ccc(F)cc12 | Non-toxic | 
4 | CC1=NOC(=O)/C1=C/c1c(C(=O)NCc2ccc(OC(F)(F)F)cc2)n(C)c2ccc(F)cc12 | Non-toxic | 
5 | CC1=NOC(=O)/C1=C/c1c(C(=O)Nc2ccc(OC(F)(F)F)cc2)n(C)c2ccc(F)cc12 | Non-toxic | 
6 | CC1=NOC(=O)/C1=C/c1c(C(=O)NCc2ccc(F)cc2)n(C)c2ccc(F)cc12 | Non-toxic | 
7 | Cn1c(C(=O)NCc2ccc(F)cc2)c(/C=C2/C(=O)ON=C2C(F)(F)F)c2cc(F)ccc21 | Non-toxic | 
8 | CC1=NOC(=O)/C1=C/c1c(C(=O)N2CCOCC2)n(C)c2ccc(F)cc12 | Non-toxic | 
9 | Cn1c(C(=O)N2CCOCC2)c(/C=C2/C(=O)ON=C2C(F)(F)F)c2cc(F)ccc21 | Non-toxic | 
10 | CCN1CCN(C(=O)c2c(/C=C3/C(=O)ON=C3C)c3cc(F)ccc3n2C)CC1 | Non-toxic | 
11 | CCN1CCN(C(=O)c2c(/C=C3/C(=O)ON=C3C(F)(F)F)c3cc(F)ccc3n2C)CC1 |  | inhibition at 72 h [2]: 30%
12 | CC1=NOC(=O)/C1=C/c1c(COCc2cn(Cc3ccc(C(F)(F)F)cc3)nn2)n(C)c2ccc(F)cc12 |  | inhibition at 72 h [2]: 30%
13 | CC1=NOC(=O)/C1=C/c1c(COCc2cn(Cc3ccc(OC(F)(F)F)cc3)nn2)n(C)c2ccc(F)cc12 | Non-toxic | 
14 | Cn1c(COCc2cn(Cc3ccc(OC(F)(F)F)cc3)nn2)c(/C=C2/C(=O)ON=C2C(F)(F)F)c2cc(F)ccc21 | Non-toxic | 
15 | Cn1c(COCc2cn(Cc3ccc([N+](=O)[O-])cc3)nn2)c(/C=C2/C(=O)ON=C2C(F)(F)F)c2cc(F)ccc21 | Non-toxic | 
16 | CC1=NOC(=O)/C1=C/c1c(COCc2cn(Cc3ccc(C#N)cc3)nn2)n(C)c2ccc(F)cc12 | Non-toxic | 
17 | Cn1c(COCc2cn(Cc3ccc(C#N)cc3)nn2)c(/C=C2/C(=O)ON=C2C(F)(F)F)c2cc(F)ccc21 | Non-toxic | 
18 | CC1=NOC(=O)/C1=C/c1c(COCc2ccc(C#N)cc2)n(C)c2ccc(F)cc12 | Non-toxic | 
19 | Nc1ccn([C@@H]2O[C@H](CO)[C@@H](O)C2(F)F)c(=O)n1 [GEMCITABINE] |  | IC50 (MCF7): 0.15 µM; IC50 (MDA-MB-231): 0.65 µM; IC50 (HT-29): 0.52 µM
